Results reported in paper PMC3771522 (Analytical chemistry, 2013).

Assays:
[1] = target: proliferating cell nuclear antigen (PCNA) (Homo sapiens, UniProt P12004); assay: fluorescence titration, hyperbolic single-site fit; type: binding; details: constant PCNA, increasing TNP-ATP
[2] = target: creatine phosphokinase; assay: fluorescence titration, hyperbolic single-site fit; details: known ATP-binding protein for comparison

proliferating cell nuclear antigen (PCNA), sequence (P12004 whole entry): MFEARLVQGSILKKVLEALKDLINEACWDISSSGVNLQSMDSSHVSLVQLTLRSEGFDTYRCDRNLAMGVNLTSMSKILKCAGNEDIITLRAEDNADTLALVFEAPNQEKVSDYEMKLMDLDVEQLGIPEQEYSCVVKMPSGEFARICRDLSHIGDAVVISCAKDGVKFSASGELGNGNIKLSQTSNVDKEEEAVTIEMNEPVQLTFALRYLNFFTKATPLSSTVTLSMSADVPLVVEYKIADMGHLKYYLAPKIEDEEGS

TNP-ATP
Kd [1]: 13 µM | Kd [2]: 27 µM
